Experimental data taken from US20230075584A1, “INTRANASAL ADMINISTRATION OF GLUTAMATE CARBOXYPEPTIDASE (GCP-II) INHIBITORS” (The Johns Hopkins University, priority 2015, published 2023).
Where “and” joins values, the source holds several entries; their conditions need not be identical. Equal entries are not always repeated. Entries after “also recorded” stand apart in the source; their conditions may differ. Where two headings read alike, the source gives them in different places.

Legend:
[1] = purified enantiomers, intranasal
Protocol: Rodent i.n. and i.p. dosing: Studies were conducted in male Wistar rats (6-8 weeks; weighing between 200 gm to 250 gm) obtained from Harlan® Laboratories (Indianapolis, Ind.) that were maintained in a controlled environment and allowed food and water ad libitum. Intranasal administrations were performed according to previously described methods with minor modifications. Briefly, rats were anesthetized with a 1-1.5 mL intraperitoneal (i.p.) dose of 10% chloral hydrate (approved under the protocol RA #13), and kept under anesthesia with additional chloral hydrate as needed throughout the entire experiment. To prevent drainage of nasally dosed solution, the nasal cavity was isolated from the respiratory and gastrointestinal tracts. An incision was made along the neck, and the trachea isolated and transected. The upper part was tied off with a 3-0 silk suture, and the lower part cannulated with PE240 tubing to aid air breathing. Rats were maintained lying on their back, and in this position, given 10 μL (375 mg/mL) of the experimental drug solution per nostril using a micro-syringe connected to 1.5 cm PE-10 tube. The total dose received was 30 mg/kg for each drug solution.
Briefly, prior to extraction, frozen samples were thawed on ice. For plasma samples, 50 μL of the calibration standard or sample were transferred into silanized vials. For brain tissues, the samples were weighed in a 1.7 mL silanized vials to which 4 times the volume of methanol (dilution 1:5) was added. The tissues were stored in −20° C. for 1 h and then homogenized. The calibration curves were developed using plasma and brain from untreated animals as a matrix. For plasma, sample preparation involved a single liquid extraction by addition of 300 μL of methanol as extraction solution with internal standard, followed by vortexing for 30 s and then centrifugation at 12000×g for 10 min. Supernatant was transferred and evaporated to dryness at 40° C. under a gentle stream of nitrogen. For brain tissue, homogenized samples were vortexed and centrifuged as above, and 100 μL supernatant was mixed with 100 μL of internal standard in methanol, and then evaporated to dryness at 40° C. under a gentle stream of nitrogen. […] For derivatization, the residue was reconstituted with 100 μL of n-butanol with 3N HCl and samples were vortexed. The samples were heated at 60° C. in a shaking water bath for 30 min. At the end of 30 min, the derivatized samples were dried under a gentle stream of nitrogen. […] The samples were vortexed and centrifuged. Supernatant (75 μL) was transferred to a 250 μL polypropylene autosampler vial sealed with a Teflon cap and a volume of 10 μL was injected onto the ultral l performance liquid chromatography (UPLC) instrument for quantitative analysis using a temperature-controlled autosampler operating at 10° C.
Chromatographic analysis was performed using an Accela™ ultra high-performance system consisting of an analytical pump, and an autosampler coupled with TSQ Vantage mass spectrometer (Thermo Fisher Scientific Inc., Waltham Mass.). […] The mobile phase was composed of 0.1% formic acid in acetonitrile and 0.1% formic acid in H2O with gradient elution. The total run time for each analyte was 5.0 min.

[2] = non-human primates; halted development; cited from earlier work
[3] = target: glutamate carboxypeptidase II (GCP-II) (Homo sapiens, UniProt Q04609); details: GCP-II inhibition, Table 1; read-out: Potency (IC50); cited from earlier work
[4] = Brain concentrations 1 h after intranasal administration in rats (single time point); type: in vivo; details: rat, 30 mg/kg i.n., 1 hr post dose; for concentration at 1 h: male, Wistar, in vivo, 30 mg/kg
[5] = Pharmacokinetics of i.p. versus i.n. administered 2-PMPA in rat plasma and brain tissues; type: in vivo
Protocol: For i.p. studies, 2-PMPA was administered as a single i.p. dose. All dosing solutions were prepared on the day of the experiment in 50 mM HEPES buffered saline, and pH adjusted to 7.4 before injection. At various time points following drug administration (0.16 h, 0.5 h, 1 h, 3 h, 5 h) post dose, animals (n=3 per time point, except 3 h n=2 animals) were euthanized with CO2, and blood samples were collected in heparinized microtubes by cardiac puncture and tissues (olfactory bulb, frontal cortex, and cerebellum) were dissected and immediately flash frozen (−80° C.). Plasma was prepared by centrifugation immediately after collection of blood samples. All samples were stored in −80° C. until bioanalysis.
The samples were vortexed and centrifuged.
The maximum plasma concentration (Cmax) and time to Cmax (Tmax) were the observed values. The area under the plasma concentration time curve (AUC) value was calculated to the last quantifiable sample (AUClast) by use of the log linear trapezoidal rule. The brain-to-plasma partition coefficients were calculated as a ratio of their AUCs (AUC0-t, brain/AUC0-t, plasma). The elimination half-life (t1/2) was determined by dividing 0.693 by λz.

[6] = as above; type: in vivo; details: 30 mg/kg i.n.; for Kp: male, Wistar, other: intranasal, 30 mg/kg
[7] = target: T1, GCP-II (Rattus norvegicus, UniProt P70627); test: Ex vivo GCP-II enzymatic (NAAG hydrolyzing) activity in rodent brain tissue after i.n. administration
T1 construct: from tissue; host or cells: rat brain (olfactory bulb, cortex, cerebellum), sonicated in Tris buffer, supernatant
Protocol: Rodent ex vivo GCP-II enzymatic activity: One half of the brain tissues collected following i.n. administration (lh post dose) was used to determine GCP-II NAAG hydrolyzing activity. In brief, tissues were weighed and immersed in 0.5 mL of ice-cold 50 mM Tris Buffer (pH 7.7 at RT). Each tissue was sonicated for 30-60 seconds using an ultrasonic cell disrupter. After a 2 minute spin at 13,000 g, supernatants were analyzed for protein content and NAAG-hydrolyzing activity measurements were performed as previously described (Rojas et al., 2012; Robinson et al., 1987).

[8] = Plasma and CSF exposure after i.n. administration in non-human primate; details: cynomolgus monkey, 30 min post dose
Protocol: A male cynomolgus monkey (approximately 3.5 kg, non-drug naive) was housed in a stainless steel cage (size 30″ (76.2 cm) wide×31″ (78.74 cm) deep×31.5″ (80.01 cm) high) maintaining temperature of 64-84° F. (17.8° C.-28.9° C.), humidity of 30-70% with alternating 12-hour light/dark cycle as per the USDA Animal Welfare Act (9 CFR, Parts 1, 2, and 3).
The monkey was sedated with 45 mg of ketamine and 0.25 mg of midazolam given as an intramuscular injection prior to test article administration. Sedation was maintained through blood and cerebrospinal fluid (CSF) sample collections with ketamine/midazolam at a starting rate of 20 mg/kg/hr ketamine and 0.4 mg/kg/hr midazolam. […] The device was actuated for a period of 2 min in one nostril (depositing 100 μL). The nose piece was cleaned with a mist of air and then the same procedure was performed in the second nostril (100 μL). Total dose delivered was 100 mg. CSF sample (target of 50 μL) was obtained by an indwelling cannula placed in the intrathecal space at the cisterna magna at 0.5 h post dose. Blood was collected via venipuncture of the femoral vein at 0.5 h post dose and plasma was obtained by low speed centrifugation at 1500×g for 10 minutes. The plasma was flash-frozen on dry ice after separation. Plasma and CSF samples were stored in a freezer set at −70° C., until bioanalysis.
Standard curves were generated in blank artificial CSF. Calibration curves were constructed in the range of 0.113-22.6 μg/mL. Samples were analyzed on Agilent QTOF mass spectrometer by LC/MS. Samples (20 μL) were injected and separated on an Agilent 1290 LC equipped with an Agilent Eclipse Plus C18 column (2.1×100 mm) packed with 1.8 micron stationary phase. The mobile phase consisted of 0.1% formic acid in water and 0.1% formic acid in acetonitrile with an isocratic elution at 2.5% organic. […] Calibration curves were generated with a correlation coefficient >0.99 in a similar manner as described above.

[9] = ex vivo, 1 h after 30 mg/kg i.n., relative to untreated control rats

T1 sequence (P70627 whole entry): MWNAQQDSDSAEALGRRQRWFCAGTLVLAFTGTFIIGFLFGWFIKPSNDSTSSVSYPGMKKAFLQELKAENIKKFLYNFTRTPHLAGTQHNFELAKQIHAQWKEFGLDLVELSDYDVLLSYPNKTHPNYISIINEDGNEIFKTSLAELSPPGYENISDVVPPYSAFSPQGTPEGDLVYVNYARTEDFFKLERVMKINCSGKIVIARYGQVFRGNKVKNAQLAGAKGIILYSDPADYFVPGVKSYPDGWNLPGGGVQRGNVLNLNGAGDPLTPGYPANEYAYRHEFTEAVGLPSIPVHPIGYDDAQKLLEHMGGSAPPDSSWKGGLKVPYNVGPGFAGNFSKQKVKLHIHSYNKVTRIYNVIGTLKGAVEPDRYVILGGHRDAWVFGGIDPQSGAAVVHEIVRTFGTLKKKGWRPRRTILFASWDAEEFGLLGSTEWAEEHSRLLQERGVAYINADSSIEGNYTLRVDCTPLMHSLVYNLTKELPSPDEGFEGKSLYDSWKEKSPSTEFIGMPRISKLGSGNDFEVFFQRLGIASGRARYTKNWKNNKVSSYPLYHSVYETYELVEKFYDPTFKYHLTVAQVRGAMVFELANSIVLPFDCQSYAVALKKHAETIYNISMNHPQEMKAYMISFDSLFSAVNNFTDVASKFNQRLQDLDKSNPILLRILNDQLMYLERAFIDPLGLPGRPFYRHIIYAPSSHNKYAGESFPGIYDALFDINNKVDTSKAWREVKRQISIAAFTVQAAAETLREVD
Sequence of glutamate carboxypeptidase II (GCP-II) (Q04609 whole entry, species assumed): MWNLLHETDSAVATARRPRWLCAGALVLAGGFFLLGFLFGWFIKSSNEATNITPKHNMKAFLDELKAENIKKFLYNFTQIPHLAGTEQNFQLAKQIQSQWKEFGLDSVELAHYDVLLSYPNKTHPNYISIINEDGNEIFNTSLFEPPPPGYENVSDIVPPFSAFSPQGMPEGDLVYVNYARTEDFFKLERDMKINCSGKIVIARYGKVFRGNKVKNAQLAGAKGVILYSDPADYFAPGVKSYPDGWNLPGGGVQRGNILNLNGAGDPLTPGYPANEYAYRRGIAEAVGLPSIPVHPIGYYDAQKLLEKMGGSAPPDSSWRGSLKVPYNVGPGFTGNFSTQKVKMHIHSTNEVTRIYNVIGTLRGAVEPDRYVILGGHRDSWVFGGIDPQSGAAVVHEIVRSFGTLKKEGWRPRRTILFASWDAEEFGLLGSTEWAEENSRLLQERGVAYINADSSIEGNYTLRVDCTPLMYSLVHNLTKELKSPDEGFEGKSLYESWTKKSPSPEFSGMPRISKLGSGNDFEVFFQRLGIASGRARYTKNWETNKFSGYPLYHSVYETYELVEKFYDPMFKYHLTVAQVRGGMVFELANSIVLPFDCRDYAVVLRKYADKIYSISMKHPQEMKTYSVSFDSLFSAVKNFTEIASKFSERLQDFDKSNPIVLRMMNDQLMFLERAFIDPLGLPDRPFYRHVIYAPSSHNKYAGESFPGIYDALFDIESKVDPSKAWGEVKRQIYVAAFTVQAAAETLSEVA

Question: For O=C(O)CC[C@H](CP(=O)(O)O)C(=O)O [S-2-PMPA], which concentration in cerebellum [1] is on record?
Answer: Its concentration in cerebellum is 2.51 µg/g.

Question: And the concentration in cortex [1]?
Answer: The concentration in cortex was 10.4 µg/g.

Question: What about the “concentration in olfactory bulb” value [1] of the same compound?
Answer: The value was 28.5 µg/g.

Question: Which “toxicity observed in primate studies” value [2] does the source give for O=C(O)CCC(CCCS)C(=O)O (stereo not shown) [2-MPPA, 2-(3-mercaptopropyl)pentane-dioic acid] here?
Answer: Its value is “membranoproliferative glomerular nephritis; also recorded: immunological toxicities”.

Question: With “N-[N-[(S)-1,3-dicarboxypropyl]carbamoyl]-L-cysteine [DCMC]” as the compound, how does the IC50 [3] read?
Answer: Its IC50 is 3.1 nM.

Question: And the concentration in cerebellum [4]?
Answer: Its concentration in cerebellum is 0.20 µg/g.

Question: And the concentration in cortex [4]?
Answer: Its concentration in cortex is 2.03 µg/g.

Question: What about the “concentration in olfactory bulb” value [4] of the same compound?
Answer: The value was 2.12 µg/g.

Question: With O=C(O)CCC(CP(=O)(O)O)C(=O)O (racemic) [2-PMPA, 2-(phosphonomethyl)-pentanedioic acid] as the compound, how does the “share of 2-PMPA reaching the brain accounted from the plasma 2-PMPA” value ([5]; i.n. route, pooled plasma and brain data from i.p. and i.n.) read?
Answer: Its value is 2%.

Question: And the Kp ([5]; male, Wistar, rat, brain, intraperitoneal, 30 mg/kg, following systemic administration, read-out: brain-to-plasma ratio)?
Answer: The Kp was at most 0.02.

Question: And the fold improvement in brain-to-plasma ratio, intranasal versus intraperitoneal ([5]; male, Wistar, rat, brain, other: intranasal, 30 mg/kg, intranasal versus other route, read-out: improvement in the brain-to-plasma ratio when administered through an intranasal route)?
Answer: Its fold improvement in brain-to-plasma ratio, intranasal versus intraperitoneal is 100.

Question: And the Kp ([5]; male, Wistar, rat, olfactory bulb, cortex and cerebellum, ip, 30 mg/kg, rat, 30 mg/kg i.p., olfactory bulb, cortex and cerebellum, read-out: brain tissue to plasma ratio based on AUCs (AUC0-t, brain/AUC0-t, plasma))?
Answer: Its Kp is under 0.02.

Question: What about the AUC0-t cerebellum ([5]; rat, 30 mg/kg i.n.) of the same compound?
Answer: Its AUC0-t cerebellum is 5.27 µg·h/g.

Question: And the AUC0-t cortex ([5]; rat, 30 mg/kg i.n.)?
Answer: The AUC0-t cortex was 37.7 µg·h/g.

Question: What about the AUC0-t olfactory bulb ([5]; rat, 30 mg/kg i.n.) of the same compound?
Answer: The AUC0-t olfactory bulb was 78.1 µg·h/g.

Question: What about the “plasma Cmax” value ([5]; rat, 30 mg/kg i.n.) of the same compound?
Answer: Its value is 24700 ng/mL.

Question: What about the AUC0-t cerebellum ([5]; rat, 30 mg/kg i.p.) of the same compound?
Answer: Its AUC0-t cerebellum is 0.80 µg·h/g.

Question: What about the AUC0-t cortex ([5]; rat, 30 mg/kg i.p.) of the same compound?
Answer: Its AUC0-t cortex is 0.84 µg·h/g.

Question: What about the AUC0-t olfactory bulb ([5]; rat, 30 mg/kg i.p.) of the same compound?
Answer: The AUC0-t olfactory bulb was 1.15 µg·h/g.

Question: What about the AUC0-t plasma ([5]; rat, 30 mg/kg i.p.) of the same compound?
Answer: Its AUC0-t plasma is 50300 ng·h/mL.

Question: And the apparent clearance ([5]; rat, 30 mg/kg i.p.)?
Answer: The apparent clearance was 9.71 mL/min/kg.

Question: And the “apparent volume of distribution” value ([5]; rat, 30 mg/kg i.p.)?
Answer: The value was 0.82 L/kg.

Question: And the “peak plasma concentration (Cmax)” value ([5]; rat, 30 mg/kg i.p.)?
Answer: The value was 49500 ng/mL.

Question: And the “elimination t1/2” value ([5]; rat, 30 mg/kg i.p., plasma)?
Answer: The value was 59.4 min.

Question: What about the “plasma AUC0-t” value [6] of the same compound?
Answer: The value was 52300 ng·h/mL.

Question: What about the Kp ([6]; cerebellum, read-out: brain tissue to plasma ratio based on AUCs, cerebellum) of the same compound?
Answer: The Kp was 0.1.

Question: What about the Kp ([6]; cortex, read-out: brain tissue to plasma ratio based on AUCs, cortex) of the same compound?
Answer: Its Kp is 0.71.

Question: And the Kp ([6]; olfactory bulb, read-out: brain tissue to plasma ratio based on AUCs, olfactory bulb)?
Answer: Its Kp is 1.49.

Question: And the “inhibition of GCP-II activity in cerebellum” value [7, 9]?
Answer: The value was 70%±5%.

Question: And the “inhibition of GCP-II activity in cortex” value [7, 9]?
Answer: The value was 100%.

Question: And the “inhibition of GCP-II activity in olfactory bulb” value [7, 9]?
Answer: Its value is 100%.

Question: And the “inhibition of brain GCP-II enzymatic activity ex-vivo” value ([7]; i.n. administration, summary statement)?
Answer: The value was “complete inhibition”.

Question: What about the “CSF concentration versus the IC50” value ([8]; i.n.) of the same compound?
Answer: The value was over 100 fold.

Question: And the concentration at 0.5 h ([8]; male, CSF, other: intranasal, 100 mg, CSF concentration, 100 mg total i.n.)?
Answer: Its concentration at 0.5 h is 320 ng/mL and ~1.5 µM.

Question: And the concentration at 1 h ([4]; read-out: concentration in cerebellum)?
Answer: The concentration at 1 h was 2130 ng/g.

Question: And the concentration at 1 h ([4]; read-out: concentration in cortex)?
Answer: The concentration at 1 h was 10300 ng/g.

Question: And the concentration at 1 h ([4]; read-out: concentration in olfactory bulb)?
Answer: The concentration at 1 h was 31200 ng/g.

Question: For O=C(O)CC[C@@H](CP(=O)(O)O)C(=O)O [R-2-PMPA], which concentration in cerebellum [1] is on record?
Answer: Its concentration in cerebellum is 1.78 µg/g.

Question: What about the concentration in cortex [1] of the same compound?
Answer: The concentration in cortex was 10.1 µg/g.

Question: And the “concentration in olfactory bulb” value [1]?
Answer: The value was 19.3 µg/g.
